Laboratory results taken from US20200038513A1, “MODULATORS OF FAK PROTEOLYSIS AND ASSOCIATED METHODS OF USE” (ARVINAS OPERATIONS, INC., priority 2018, published 2020).
Read-outs that look alike come from different tables or passages of the source.

Experiment: Pharmacokinetics of intraperitoneal or intravenous injection in CD1 mice
Format: in vivo
Details: CD1 mice plasma; for concentration at 0.25 h / concentration at 0.5 h / concentration at 1 h / concentration at 2 h / concentration at 4 h / concentration at 0.033 h / concentration at 0.083 h: male, CD1, mouse, plasma
Method: The pharmacokinetics of exemplary compounds 103, 107, 100, 101, and 102 was examined for intraperitoneal and intravenous administration. The desired serial concentrations of working solutions were achieved by diluting stock solution (1 mg/mL in DMSO) of analyte with methanol. In particular, 20 μL of working solutions (1, 2, 5, 10, 50, 100, 500, 1000, 2000 ng/mL) were added to 20 μL of the blank CD1 mice plasma to achieve calibration standards of 1-2000 ng/mL (1, 2, 5, 10, 50, 100, 500, 1000, 2000 ng/mL) in a total volume of 40 μL. Dose of IV and IP were diluted by 1000 fold and 10000 with methanol, 20 μL of the diluted dose solutions were added to 20 μL of the blank CD1 mice plasma to achieve dose samples. Next, 40 μL standards and 40 μL dose samples were added to 20 μL of IS (100 ng/mL) and 200 μL of acetonitrile for precipitating protein respectively. Then the samples were vortexed for 30 seconds. After centrifugation at 4 degree Celsius, 4000 rpm for 15 minutes, the supernatant was diluted 3 times with water. 10 μL of the diluted supernatant was injected into the LC/MS/MS system for quantitative analysis.
Exemplary compounds 103, 107, 100, 101, and 102 were administered intravenously (5 second injection of 10% HP-b-CD and 40 mM sodium acetate and 40 mM NaCl in water, pH4.5) or intraperitoneally (5% EtOH and 5% Solutol HS15 in D5W(ESD-2)) to 6-8 week old male CD1 mice (3 mice per treatment group for a total of 12 mice) at the time points indicated below in Table 7. The mice had free access to food and water.
Dorsal metatarsal vein samples (30 μL), except that the final sample was acquired via a heart puncture, were taken from the mice at the same the administration time points as shown in Table 7.

[1] = iv, 1 mg/kg, IV 1.0 mg/kg, read-out: Conc. (ng/mL) Mouse 1
[2] = iv, 1 mg/kg, IV 1.0 mg/kg, read-out: Conc. (ng/mL) Mouse 2
[3] = iv, 1 mg/kg, IV 1.0 mg/kg, read-out: Conc. (ng/mL) Mouse 3
[4] = iv, 1 mg/kg, IV 1.0 mg/kg, read-out: Mean

CN(c1cccc(CNc2nc(Nc3ccc(OCCCOCCC(=O)NCCOc4cccc5c4C(=O)N(C4CCC(=O)NC4=O)C5=O)cc3)ncc2C(F)(F)F)c1)S(C)(=O)=O (centres unmarked) [Compound 107]
Conc. (ng/mL) Mouse 1 (IP 10 mg/kg, 8 h): BLOQ
Conc. (ng/mL) Mouse 2 (IP 10 mg/kg, 8 h): BLOQ
Conc. (ng/mL) Mouse 3 (IP 10 mg/kg, 8 h): BLOQ
Conc. (ng/mL) Mouse 1 (IP 10 mg/kg, 24 h): BLOQ
Conc. (ng/mL) Mouse 2 (IP 10 mg/kg, 24 h): BLOQ
Conc. (ng/mL) Mouse 3 (IP 10 mg/kg, 24 h): BLOQ
Conc. (ng/mL) Mouse 1 (IV 1.0 mg/kg, 0.25 h): BLOQ
Conc. (ng/mL) Mouse 1 (IV 1.0 mg/kg, 0.5 h): BLOQ
Conc. (ng/mL) Mouse 2 (IV 1.0 mg/kg, 0.5 h): BLOQ
Conc. (ng/mL) Mouse 3 (IV 1.0 mg/kg, 0.5 h): BLOQ
Conc. (ng/mL) Mouse 1 (IV 1.0 mg/kg, 1 h): BLOQ
Conc. (ng/mL) Mouse 2 (IV 1.0 mg/kg, 1 h): BLOQ
Conc. (ng/mL) Mouse 3 (IV 1.0 mg/kg, 1 h): BLOQ
Conc. (ng/mL) Mouse 1 (IV 1.0 mg/kg, 2 h): BLOQ
Conc. (ng/mL) Mouse 2 (IV 1.0 mg/kg, 2 h): BLOQ
Conc. (ng/mL) Mouse 3 (IV 1.0 mg/kg, 2 h): BLOQ
Conc. (ng/mL) Mouse 1 (IV 1.0 mg/kg, 4 h): BLOQ
Conc. (ng/mL) Mouse 2 (IV 1.0 mg/kg, 4 h): BLOQ
Conc. (ng/mL) Mouse 3 (IV 1.0 mg/kg, 4 h): BLOQ
Conc. (ng/mL) Mouse 1 (IV 1.0 mg/kg, 8 h): BLOQ
Conc. (ng/mL) Mouse 2 (IV 1.0 mg/kg, 8 h): BLOQ
Conc. (ng/mL) Mouse 3 (IV 1.0 mg/kg, 8 h): BLOQ
Conc. (ng/mL) Mouse 1 (IV 1.0 mg/kg, 24 h): BLOQ
Conc. (ng/mL) Mouse 2 (IV 1.0 mg/kg, 24 h): BLOQ
Conc. (ng/mL) Mouse 3 (IV 1.0 mg/kg, 24 h): BLOQ
concentration at 0.25 h (ip, 10 mg/kg, IP 10 mg/kg, 0.25 h, read-out: Conc. (ng/mL) Mouse 1): 44.8 ng/mL
concentration at 0.25 h (ip, 10 mg/kg, IP 10 mg/kg, 0.25 h, read-out: Conc. (ng/mL) Mouse 2): 42.6 ng/mL
concentration at 0.25 h (ip, 10 mg/kg, IP 10 mg/kg, 0.25 h, read-out: Conc. (ng/mL) Mouse 3): 111 ng/mL
concentration at 0.25 h (ip, 10 mg/kg, IP 10 mg/kg, 0.25 h, read-out: Mean): 66 ng/mL
concentration at 0.5 h (ip, 10 mg/kg, IP 10 mg/kg, 0.5 h, read-out: Conc. (ng/mL) Mouse 1): 68.4 ng/mL
concentration at 0.5 h (ip, 10 mg/kg, IP 10 mg/kg, 0.5 h, read-out: Conc. (ng/mL) Mouse 2): 41.9 ng/mL
concentration at 0.5 h (ip, 10 mg/kg, IP 10 mg/kg, 0.5 h, read-out: Conc. (ng/mL) Mouse 3): 69.3 ng/mL
concentration at 0.5 h (ip, 10 mg/kg, IP 10 mg/kg, 0.5 h, read-out: Mean): 59.9 ng/mL
concentration at 1 h (ip, 10 mg/kg, IP 10 mg/kg, 1 h, read-out: Conc. (ng/mL) Mouse 1): 64.7 ng/mL
concentration at 1 h (ip, 10 mg/kg, IP 10 mg/kg, 1 h, read-out: Conc. (ng/mL) Mouse 2): 54.2 ng/mL
concentration at 1 h (ip, 10 mg/kg, IP 10 mg/kg, 1 h, read-out: Conc. (ng/mL) Mouse 3): 199 ng/mL
concentration at 1 h (ip, 10 mg/kg, IP 10 mg/kg, 1 h, read-out: Mean): 106 ng/mL
concentration at 2 h (ip, 10 mg/kg, IP 10 mg/kg, 2 h, read-out: Conc. (ng/mL) Mouse 1): 53.2 ng/mL
concentration at 2 h (ip, 10 mg/kg, IP 10 mg/kg, 2 h, read-out: Conc. (ng/mL) Mouse 2): 38.1 ng/mL
concentration at 2 h (ip, 10 mg/kg, IP 10 mg/kg, 2 h, read-out: Conc. (ng/mL) Mouse 3): 59.8 ng/mL
concentration at 2 h (ip, 10 mg/kg, IP 10 mg/kg, 2 h, read-out: Mean): 50.4 ng/mL
concentration at 4 h (ip, 10 mg/kg, IP 10 mg/kg, 4 h, read-out: Conc. (ng/mL) Mouse 1): 4.11 ng/mL
concentration at 4 h (ip, 10 mg/kg, IP 10 mg/kg, 4 h, read-out: Conc. (ng/mL) Mouse 2): 14.9 ng/mL
concentration at 4 h (ip, 10 mg/kg, IP 10 mg/kg, 4 h, read-out: Conc. (ng/mL) Mouse 3): 22.2 ng/mL
concentration at 4 h (ip, 10 mg/kg, IP 10 mg/kg, 4 h, read-out: Mean): 13.7 ng/mL
concentration at 0.033 h [1]: 31.4 ng/mL
concentration at 0.033 h [2]: 31.6 ng/mL
concentration at 0.033 h [3]: 34.3 ng/mL
concentration at 0.033 h [4]: 32.4 ng/mL
concentration at 0.083 h [1]: 8.44 ng/mL
concentration at 0.083 h [2]: 9.65 ng/mL
concentration at 0.083 h [3]: 9.61 ng/mL
concentration at 0.083 h [4]: 9.23 ng/mL
concentration at 0.25 h (iv, 1 mg/kg, IV 1.0 mg/kg, 0.25 h, read-out: Conc. (ng/mL) Mouse 2): 2.25 ng/mL
concentration at 0.25 h (iv, 1 mg/kg, IV 1.0 mg/kg, 0.25 h, read-out: Conc. (ng/mL) Mouse 3): 1.73 ng/mL
concentration at 0.25 h (iv, 1 mg/kg, IV 1.0 mg/kg, 0.25 h, read-out: Mean): 1.99 ng/mL
